Experimental data taken from patent publication US20150017203A1, “COMBINATION PRODUCT FOR TREATING EXCESS WEIGHT AND/OR FOR IMPROVING THE FIGURE” (INSTITUT NATIONAL DE LA RECHERCHE AGRONOMIQUE - INRA, priority 2012, published 2015).

Key:
[1] = Mice weight under high-lipid diet, 3-week pharmaco-nutritional regimen; format: in vivo; settings: after 3-week regimen; vs control regimen
Method: (§1) 100 male mice C57 Black 6/J aged 5 weeks (January, France) were accommodated in individual cages in the pet center of the INRA center, Theix, in thermoregulated premises (20-22° C.) and submitted to alternating 12 hour-cycles of light and darkness. After a week of acclimatization under a <<control regimen>> (D12450B, Research Diet, USA), 20 mice continued this regimen for 11 weeks. The other 80 mice were fed with a ? high-lipid regimen ? (HL) (D12451, Research Diet, USA) for 8 weeks. The total calorie intake, in percentages, provided for both the <> and HL regimens 20% proteins and respectively, 70% and 35% carbohydrates and 10% and 45% lipids. […] The mice weight was measured every 2 weeks.

[2] = Body composition measurement through Echo MRI (body fat, lean body mass); format: in vivo, mice; settings: for Total body fat vs control regimen (Echo MRI): day 80, vs mice under control regimen; for Body fat: difference with high-lipid diet alone (HL), mice, 3 weeks
Method: as §1
Body fat and lean body mass of awake mice after 15 h fasting were quantified using nuclear magnetic resonance (Echo MRI, Houston, USA) at day 80 of the experiment.

[3] = Organ and tissue weights at sacrifice (peri-epididymal adipose tissue, leg muscles, liver); format: in vivo; settings: vs mice under control regimen
Method: as §1
(§2) Prior to being sacrificed, mice after 15 h fasting were anesthetized through barbital intraperitoneal injection (1.5 μl/g). Blood was collected in EDTA-containing specimen collectors before being centrifuged (12000 rpm, 4 min, room temperature). Plasma was thereafter collected, distributed in aliquots and frozen in liquid nitrogen, then stored at −80° C. The adipose peri-epididymal tissue, liver and leg triceps muscle (gastrocnemius muscle), tibialis and quadriceps muscles were weighted, frozen in liquid nitrogen, then stored at −80° C.

[4] = Plasma dosages (non-esterified fatty acids, triglycerides, cholesterol, glucose); format: in vivo, mice; settings: for Cholesterolemia compared to control mice: ANOVA p=0.01
Method: as §2, with “100 male mice C57 Black 6/J aged 5 weeks (January, France) were accommodated in individual cages in the pet center of the INRA center, Theix, in thermoregulated premises (20-22° C.) and submitted to alternating 12 hour-cycles of light and darkness. […] The mice weight was measured every 2 weeks. Prior” for “Prior”

[5] = Glucose tolerance measurement (ipGTT test); format: in vivo, mice; settings: for Glucose tolerance: difference with high-lipid diet alone (HL), mice, 3 weeks; for Glucose tolerance compared to the control regimen: ipGTT, glucose 2 mg/g i.p., vs control
Method: as §1
(§3) After a 3-week pharmaco-nutritional regimen, measurements of the insulin sensitivity and glucose tolerance were conducted respectively on 10 mice of each group after a fasting night. Insulin sensitivity measurement: basal glycemia was evaluated using a glucose meter (Glucotouch, Lifescan, USA) on blood droplets collected from the tail. An insulin dose of 0.75 mU/g of weight was administered through intraperitoneal injection and glycemia was evaluated 15, 30, 45, 60 and 120 minutes post injection. Glucose tolerance measurement: a glucose dose (2 mg/g of weight) was administered through intraperitoneal injection. Glycemia was evaluated as for the insulin sensitivity test before and 15, 30, 60 and 120 minutes post injection.
Glucose tolerance measurement (ipGTT test): glucose tolerance is defined as the ability for a mouse to normalize its glycemia when injecting glucose. It is evaluated through the calculation of the area under the curve of the glycemia evolution after an injection of glucose.

[6] = Insulin sensitivity measurement (ipITT test); format: in vivo, mice; settings: for Insulin sensitivity: difference with high-lipid diet alone (HL), mice, 3 weeks
Method: as §1, §3

[7] = taking statin in the long term; cited from earlier work
[8] = conclusions of several clinical assays; cited from earlier work
[9] = difference with high-lipid diet alone (HL), mice, 3 weeks

Row | Compound | Mice weight as compared to the controls [1] | Total body fat vs control regimen (Echo MRI) [2] | Body fat [2] [%] | Weight of peri-epididymal adipose tissue vs control regimen [3] | Plasma levels: Non esterified fatty acids [4, 9] [%] | Plasma levels: Triglycerides [4, 9] [%] | Plasma levels of non-esterified fatty acids compared to control mice ([4]; vs control mice) | Triglyceridemia compared to control mice ([4]; vs control mice) | Cholesterolemia compared to control mice ([4]; vs control mice) | Glucose tolerance [5] | Glucose tolerance compared to the control regimen [5] | Insulin sensitivity [6] | Insulin sensitivity compared to controls ([6]; ipITT, insulin 0.75 mU/g i.p., vs control) | Influence on body fat [7] | Development of type 2 diabetes [8]
1 | NC(=O)NCCC[C@H](N)C(=O)O [L-citrulline, L-Citrulline] | significantly higher | +100% | −7 | doubled | −24 | −15 | at a similar level compared to the control mice | bring triglyceridemia back to the level of that obtained in control mice | significant increase in cholesterolemia | +7% | significant reduction of glucose tolerance | +5% | tend to be less sensitive to insulin |  | 
2 | CC(C)c1c(C(=O)Nc2ccccc2)c(-c2ccccc2)c(-c2ccc(F)cc2)n1CC[C@@H](O)C[C@@H](O)CC(=O)O [Statin, Atorvastatin] | significantly higher | +87% | −13 | doubled |  |  |  | bring triglyceridemia back to the level of that obtained in control mice | significant increase in cholesterolemia | +11% | significant reduction of glucose tolerance | +31% |  | has not any positive influence on body fat | would promote the development of type 2 diabetes
3 | CC(C)c1nc(N(C)S(C)(=O)=O)nc(-c2ccc(F)cc2)c1/C=C/[C@@H](O)C[C@@H](O)CC(=O)O [rosuvastatin] |  |  |  |  |  |  |  |  |  |  |  |  |  |  | would promote the development of type 2 diabetes
